The results in this text go back to patent publication US11428693B2, “Method of high throughput screening of chemical compounds suppressing nucleolar hypertrophy” (Baylor College of Medicine, priority 2017, dated 2022).

Molecules are shown by their SMILES. Like-named read-outs stand apart in the source and are kept apart here. Where a SMILES comes first, the peptide text is derived from it. The star is where a group is joined. Cbz = O=C(OCc1ccccc1)*

Series [1] has as its system HCT-15 cells. The series can be described thus: GFP-L7a expression in treated HCT-15 cells (FIG. 8). The series is classed as cell-based, human. An excerpt:
FIG. 8 contains pictures of cells. HCT-15 cells, grown on 35 mm glass bottom dishes, were transfected with the GFP-L7a vector pCMV6-AC-GFP to express GFP-L7a protein.

Series [2] relates to HCT-15 cells.
Experimental: (§1) To further assess protein biosynthesis in the perinuclear area and ribosome biogenesis, several chemical agents were tested on cellular growth and survival.
(§2) All the tested compounds were dissolved in dimethylsulfoxide (DMSO).
(§3) The human colorectal adenocarcinoma cell lines: HCT-15 was purchased from ATCC. Cultures of cells maintained in DMEM/F12 medium containing 10% FBS and antibiotics, at 37° C. with 5% CO2. For cell treatments, cells were grown at 80% confluence in complete medium.
Series [3] relates to HCT-15 cells. Description: Cell survival assay using MTT (toxicity study, FIG. 7). Particulars: for toxicity (cell survival, MTT): at the applied concentrations, compounds dissolved in DMSO; for cellular proliferation: prolonged 24-hour treatments.
Experimental: as §1, §2, §3
Where [4] appears, read: HCT-15 cells transfected with GFP-L7a vector pCMV6-AC-GFP.

Regarding `O=C1Nc2cc(Br)ccc2/C1=C1/Nc2ccccc2/C1=N\O` [Bio, (2′Z,3′E)-6-Bromoindirubin-3′-oxime], in the series with HCT-15 cells [1] (setting [4]), the “nucleolar hypertrophy (GFP-L7a)” value was “induced” and the “perinuclear protein synthesis (GFP-L7a)” value is listed as “induced”. For the same compound, the “toxicity (cell survival, MTT)” value in the series with HCT-15 cells [2] was “more toxic than the other compounds”.

Consider `COC1=C2C[C@@H](C)C[C@H](OC)[C@H](O)[C@@H](C)/C=C(\C)[C@H](OC(N)=O)[C@@H](OC)/C=C\C=C(/C)C(=O)NC(=CC1=O)C2=O` [Geldanamycin, (4E,6Z,8S,9S,10E,12S,13R,14S,16R)-13-hydroxy-8,14,19-trimethoxy-4,10,12,16-tetramethyl-3,20,22-trioxo-2-azabicyclo[16.3.1]docosa-1(21),4,6,10,18-pentaen-9-yl carbamate], for which, in the series on HCT-15 cells [1] (setting [4]), the “nucleolar hypertrophy (GFP-L7a)” value is given as “induced” and the “perinuclear protein synthesis (GFP-L7a)” value is on record as “induced”. Moreover, in the series with HCT-15 cells [3], the “toxicity (cell survival, MTT)” value is on record as “no toxicity” and the cellular proliferation result is on record as “inhibited cellular proliferation”.

As to `CC(C)C[C@@H](C=O)NC(=O)[C@H](CC(C)C)NC(=O)[C@H](CC(C)C)NC(=O)OCc1ccccc1` [MG132, Benzyl N-[(2S)-4-methyl-1-[[(2S)-4-methyl-1-[[(2S)-4-methyl-1-oxopentan-2-yl]amino]-1-oxopentan-2-yl]amino]-1-oxopentan-2-yl]carbamate] (Cbz-Leu-Leu-Leu-aldehyde), in the series with HCT-15 cells [1] (setting [4]), the “nucleolar hypertrophy (GFP-L7a)” value is on record as “induced” and the “perinuclear protein synthesis (GFP-L7a)” value is given as “induced”. Besides, in the series with HCT-15 cells [3], the “toxicity (cell survival, MTT)” value is recorded as “no toxicity” and the cellular proliferation entry is reported as “inhibited cellular proliferation”.

With `CCc1cncnc1N1CCN(Cc2nc3cc(C(F)(F)F)ccc3[nH]2)CC1` [PF4708671, 2-((4-(5-Ethylpyrimidin-4-yl)piperazin-1-yl)methyl)-5-(trifluoromethyl)-1H-benzo[d]imidazole], in the series with HCT-15 cells [1] (setting [4]), the “nucleolar hypertrophy (GFP-L7a)” value was “induced” and the “perinuclear protein synthesis (GFP-L7a)” value is “induced”. In addition, the “toxicity (cell survival, MTT)” value with HCT-15 cells [3] was “no toxicity”.

For the compound `C=C(C)[C@H]1Cc2c(ccc3c2O[C@@H]2COc4cc(OC)c(OC)cc4[C@@H]2C3=O)O1` [Rotenone, (2R,6aS,12a5)-1,2,6,6a,12,12a-hexahydro-2-isopropenyl-8,9-dimethoxychromeno[3,4-b]furo(2,3-h)chromen-6-one], in the series with HCT-15 cells [1] (setting [4]), the “nucleolar hypertrophy (GFP-L7a)” value is recorded as “induced” and the “perinuclear protein synthesis (GFP-L7a)” value is “induced”. In addition, the “toxicity (cell survival, MTT)” value in the series on HCT-15 cells [2] is recorded as “no toxicity”. The cellular proliferation entry with HCT-15 cells [3] is “inhibited cellular proliferation”.

`CC(C)n1nc(-c2cc3cc(O)ccc3[nH]2)c2c(N)ncnc21` [pp242, 2-(4-amino-1-isopropyl-1H-pyrazolo[3,4-d]pyrimidin-3-yl)-1H-indol-5-ol]: the “perinuclear protein synthesis (GFP-L7a)” value in the series on HCT-15 cells [1] is recorded as “induced”. The “toxicity (cell survival, MTT)” value with HCT-15 cells [2] is listed as “no toxicity”.
